Among the data in patent US20260297080A1, “BICYCLIC COMPOUNDS AS CDK INHIBITORS” (BeOne Medicines I GmbH, priority 2022, published 2026) are IC50 values, retold here.

For one test, the target named is CDK2/Cyclin E1 (Homo sapiens, UniProt P24941). Kind of test: CDK2/Cyclin E1 Biochemical Assay (TR-FRET), 0.060 mM ATP. As to conditions: 0.15 μM Rb (Ser780)-biotin substrate, pH7.0, 60 min preincubation, 120 min reaction, room temperature. In outline:
(§1)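 Kinase preincubated with compound (0–10 μM) 60 min at room temperature, then reaction started with ATP and 0.15 μM Rb (Ser780)-biotin peptide and run 120 min in HEPES pH 7.0 buffer with 50 mM MgCl2. Phospho-Rb detected by Eu-cryptate anti-pRb(Ser780)/streptavidin-XL665 TR-FRET (665/620 nm ratio); IC50 from four-parameter logistic fit.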
For orientation: In TR-FRET formats the signal depends on donor and acceptor labels being close together.

The target of a further test is CDK1/Cyclin B1 (Homo sapiens, UniProt P06493). Nature of the test: CDK1/Cyclin B1 Biochemical Assay (TR-FRET), 0.015 mM ATP. As to conditions: 0.15 μM Rb (Ser780)-biotin substrate, pH7.0, 60 min preincubation, 120 min reaction, room temperature. In outline: as §1
CDK1/Cyclin B1, sequence (P06493 whole entry): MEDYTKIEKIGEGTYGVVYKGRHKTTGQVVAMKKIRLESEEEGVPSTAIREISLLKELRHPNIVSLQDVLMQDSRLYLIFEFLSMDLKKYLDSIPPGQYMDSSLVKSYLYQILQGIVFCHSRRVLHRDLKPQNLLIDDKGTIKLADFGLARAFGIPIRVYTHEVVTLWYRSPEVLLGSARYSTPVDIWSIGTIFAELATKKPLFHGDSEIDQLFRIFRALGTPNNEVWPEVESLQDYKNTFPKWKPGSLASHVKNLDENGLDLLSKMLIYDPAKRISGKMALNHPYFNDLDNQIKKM
CDK1/Cyclin B1, sequence (P14635 whole entry partner): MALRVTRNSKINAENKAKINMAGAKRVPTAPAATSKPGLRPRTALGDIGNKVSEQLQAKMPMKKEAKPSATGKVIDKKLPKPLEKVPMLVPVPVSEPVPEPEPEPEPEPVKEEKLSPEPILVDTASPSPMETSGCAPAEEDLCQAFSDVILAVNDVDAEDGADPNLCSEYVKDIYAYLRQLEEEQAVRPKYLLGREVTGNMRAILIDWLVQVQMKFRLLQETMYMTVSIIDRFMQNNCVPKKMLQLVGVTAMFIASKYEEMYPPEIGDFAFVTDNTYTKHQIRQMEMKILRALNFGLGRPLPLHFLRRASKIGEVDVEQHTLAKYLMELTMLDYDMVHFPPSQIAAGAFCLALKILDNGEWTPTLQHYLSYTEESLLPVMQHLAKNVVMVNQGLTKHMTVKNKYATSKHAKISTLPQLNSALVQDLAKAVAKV

A word on the IC50: it is the point on the concentration scale where inhibition reaches its midpoint. Regarding `Cc1c(Nc2cc([C@@H]3CC[C@H](OC(=O)NC(C)C)C3)[nH]n2)ccc2c1CN(C)S2(=O)=O` (relative stereo) [Example 35, cis-3-(3-((2,4-dimethyl-1,1-dioxido-2,3-dihydrobenzo[d]isothiazol-5-yl)amino)-1H-pyrazol-5-yl)cyclopentyl isopropylcarbamate], the IC50 at CDK2/Cyclin E1 was found to be 8.9 nM; against CDK1/Cyclin B1, 296 nM.
For `COCCN1Cc2c(ccc(Nc3cc([C@@H]4CC[C@H](OC(=O)NC(C)C)C4)[nH]n3)c2C)S1(=O)=O` (relative stereo) [Example 36, cis-3-(3-((2-(2-methoxyethyl)-4-methyl-1,1-dioxido-2,3-dihydrobenzo[d]isothiazol-5-yl)amino)-1H-pyrazol-5-yl)cyclopentyl isopropylcarbamate] the same measures were 18 nM and 329 nM.
Consider `Cc1c(Nc2cc([C@@H]3CC[C@H](OC(=O)NC(C)C)C3)[nH]n2)ccc2c1CN(CCO)S2(=O)=O` (relative stereo) [Example 37, cis-3-(3-((2-(2-hydroxyethyl)-4-methyl-1,1-dioxido-2,3-dihydrobenzo[d]isothiazol-5-yl)amino)-1H-pyrazol-5-yl)cyclopentyl isopropylcarbamate], for which the IC50 at CDK2/Cyclin E1 came out at 7.2 nM; against CDK1/Cyclin B1 it was 313 nM.
On to `CC[C@H](C)NC(=O)O[C@H]1CC[C@@H](c2cc(Nc3ccc4c(c3Cl)CNS4(=O)=O)n[nH]2)C1` (relative stereo) [Example 41, cis-3-(3-((4-chloro-1,1-dioxido-2,3-dihydrobenzo[d]isothiazol-5-yl)amino)-1H-pyrazol-5-yl)cyclopentyl((S)-sec-butyl)carbamate], for which the IC50 on CDK2/Cyclin E1 is 2.3 nM; on CDK1/Cyclin B1, 512 nM.
In the case of `CC[C@H](C)NC(=O)O[C@H]1CC[C@@H](c2cc(Nc3cc4c(cc3F)S(=O)(=O)NC4)n[nH]2)C1` (relative stereo) [Example 43, cis-3-(3-((6-fluoro-1,1-dioxido-2,3-dihydrobenzo[d]isothiazol-5-yl)amino)-1H-pyrazol-5-yl)cyclopentyl((S)-sec-butyl)carbamate], the IC50 against CDK2/Cyclin E1 was 1.1 nM; against CDK1/Cyclin B1 it was 130 nM.
For `CC(C)NC(=O)O[C@H]1CC[C@@H](c2cc(Nc3cc4c(cc3F)S(=O)(=O)N(C)C4)n[nH]2)C1` (relative stereo) [Example 45, cis-3-(3-((6-fluoro-2-methyl-1,1-dioxido-2,3-dihydrobenzo[d]isothiazol-5-yl)amino)-1H-pyrazol-5-yl)cyclopentyl isopropylcarbamate] the same measures were 181 nM and 6010 nM.
Taken in the same sequence, the figures for `[2H]C([2H])([2H])N1Cc2cc(Nc3cc([C@@H]4CC[C@H](OC(=O)NC(C)C)C4)[nH]n3)c(F)cc2S1(=O)=O` (relative stereo) [Example 46, cis-3-(3-((6-fluoro-2-(methyl-d3)-1,1-dioxido-2,3-dihydrobenzo[d]isothiazol-5-yl)amino)-1H-pyrazol-5-yl)cyclopentyl isopropylcarbamate] were 230 nM and 4420 nM.
For `CC(C)NC(=O)O[C@H]1CC[C@@H](c2cc(Nc3cc4c(cc3F)S(=O)(=O)N(CCO)C4)n[nH]2)C1` (relative stereo) [Example 47, cis-3-(3-((6-fluoro-2-(2-hydroxyethyl)-1,1-dioxido-2,3-dihydrobenzo[d]isothiazol-5-yl)amino)-1H-pyrazol-5-yl)cyclopentyl isopropylcarbamate] the same measures were 158 nM and 7380 nM.
As to `COCCN1Cc2cc(Nc3cc([C@@H]4CC[C@H](OC(=O)NC(C)C)C4)[nH]n3)c(F)cc2S1(=O)=O` (relative stereo) [Example 48, cis-3-(3-((6-fluoro-2-(2-methoxyethyl)-1,1-dioxido-2,3-dihydrobenzo[d]isothiazol-5-yl)amino-1H-pyrazol-5-yl)cyclopentyl isopropylcarbamate], the figures for the IC50 at CDK2/Cyclin E1 and on CDK1/Cyclin B1 were 243 nM and more than 10000 nM, respectively.
On to `CC(C)NC(=O)O[C@H]1CC[C@@H](c2cc(Nc3cc4c(cc3F)S(=O)(=O)N(C(C)C)C4)n[nH]2)C1` (relative stereo) [Example 49, cis-3-(3-((6-fluoro-2-isopropyl-1,1-dioxido-2,3-dihydrobenzo[d]isothiazol-5-yl)amino)-1H-pyrazol-5-yl)cyclopentyl isopropylcarbamate], for which the IC50 was 758 nM on CDK2/Cyclin E1 and more than 10000 nM on CDK1/Cyclin B1.
For `CC(C)NC(=O)O[C@H]1CC[C@@H](c2cc(Nc3ccc4c(c3F)C(C)(C)NS4(=O)=O)n[nH]2)C1` (relative stereo) [Example 55, cis-3-(3-((4-fluoro-3,3-dimethyl-1,1-dioxido-2,3-dihydrobenzo[d]isothiazol-5-yl)amino)-1H-pyrazol-5-yl)cyclopentyl isopropylcarbamate] the same measures were 71 nM and 1890 nM.
On to `CC1(NC(=O)O[C@H]2CC[C@@H](c3cc(Nc4ccc5c(c4F)C(C)(C)NS5(=O)=O)n[nH]3)C2)CC1` (relative stereo) [Example 56, cis-3-(3-((4-fluoro-3,3-dimethyl-1,1-dioxido-2,3-dihydrobenzo[d]isothiazol-5-yl)amino)-1H-pyrazol-5-yl)cyclopentyl(1-methylcyclopropyl)carbamate], for which the IC50 came to 25 nM against CDK2/Cyclin E1 and 472 nM against CDK1/Cyclin B1.
Taken in the same sequence, the figures for `CC[C@H](C)NC(=O)O[C@H]1CC[C@@H](c2cc(Nc3ccc4c(c3F)C(C)(C)NS4(=O)=O)n[nH]2)C1` (relative stereo) [Example 57, cis-3-(3-((4-fluoro-3,3-dimethyl-1,1-dioxido-2,3-dihydrobenzo[d]isothiazol-5-yl)amino)-1H-pyrazol-5-yl)cyclopentyl((S)-sec-butyl)carbamate] were 48 nM and 1080 nM.
For `CCCNC(=O)O[C@H]1CC[C@@H](c2cc(Nc3ccc4c(c3F)C(C)(C)NS4(=O)=O)n[nH]2)C1` (relative stereo) [Example 58, cis-3-(3-((4-fluoro-3,3-dimethyl-1,1-dioxido-2,3-dihydrobenzo[d]isothiazol-5-yl)amino)-1H-pyrazol-5-yl)cyclopentyl propylcarbamate] the same measures were 93 nM and 694 nM.
Consider `CC(C)NC(=O)O[C@H]1CC[C@@H](c2cc(Nc3ccc4c(c3F)C(=O)NS4(=O)=O)n[nH]2)C1` (relative stereo) [Example 59, cis-3-(3-((4-fluoro-1,1-dioxido-3-oxo-2,3-dihydrobenzo[d]isothiazol-5-yl)amino)-1H-pyrazol-5-yl)cyclopentyl isopropylcarbamate], for which the values for the IC50 on CDK2/Cyclin E1 and at CDK1/Cyclin B1 were 5.8 nM and 296 nM, respectively.
For `CCN1Cc2c(ccc(Nc3cc([C@@H]4CC[C@H](OC(=O)NC(C)C)C4)[nH]n3)c2F)S1(=O)=O` (relative stereo) [Example 60, cis-3-(3-((2-ethyl-4-fluoro-1,1-dioxido-2,3-dihydrobenzo[d]isothiazol-5-yl)amino)-1H-pyrazol-5-yl)cyclopentyl isopropylcarbamate] the same measures were 9.2 nM and 497 nM.
For `CC(C)NC(=O)O[C@H]1CC[C@@H](c2cc(Nc3ccc4c(c3F)CN(C3CCCN(C)C3)S4(=O)=O)n[nH]2)C1` (relative stereo) [Example 61, cis-3-(3-((4-fluoro-2-(1-methylpiperidin-3-yl)-1,1-dioxido-2,3-dihydrobenzo[d]isothiazol-5-yl)amino)-1H-pyrazol-5-yl)cyclopentyl isopropylcarbamate] the same measures were 10 nM and 836 nM.
